# Where two headings read alike, the source gives them in different places. Where a SMILES comes first, the peptide text is derived from it.
# How the values were obtained:
# ACE (from rabbit lung) = molecular target: T1, ACE (from rabbit lung) (Oryctolagus cuniculus, UniProt P12822); test: ACE-inhibitory activity, HHL substrate, spectrophotometric; format: biochemical; conditions: synthetic peptide, 37 °C, 1 h, absorbance at 228 nm, from regression of % inhibition vs concentration, repeated at least three times
# T1 construct: ACE (from rabbit lung) were purchased from Sigma-Aldrich Co; purchased Sigma-Aldrich Co; host or cells: rabbit lung tissue
# T1 sequence (P12822 34-1310): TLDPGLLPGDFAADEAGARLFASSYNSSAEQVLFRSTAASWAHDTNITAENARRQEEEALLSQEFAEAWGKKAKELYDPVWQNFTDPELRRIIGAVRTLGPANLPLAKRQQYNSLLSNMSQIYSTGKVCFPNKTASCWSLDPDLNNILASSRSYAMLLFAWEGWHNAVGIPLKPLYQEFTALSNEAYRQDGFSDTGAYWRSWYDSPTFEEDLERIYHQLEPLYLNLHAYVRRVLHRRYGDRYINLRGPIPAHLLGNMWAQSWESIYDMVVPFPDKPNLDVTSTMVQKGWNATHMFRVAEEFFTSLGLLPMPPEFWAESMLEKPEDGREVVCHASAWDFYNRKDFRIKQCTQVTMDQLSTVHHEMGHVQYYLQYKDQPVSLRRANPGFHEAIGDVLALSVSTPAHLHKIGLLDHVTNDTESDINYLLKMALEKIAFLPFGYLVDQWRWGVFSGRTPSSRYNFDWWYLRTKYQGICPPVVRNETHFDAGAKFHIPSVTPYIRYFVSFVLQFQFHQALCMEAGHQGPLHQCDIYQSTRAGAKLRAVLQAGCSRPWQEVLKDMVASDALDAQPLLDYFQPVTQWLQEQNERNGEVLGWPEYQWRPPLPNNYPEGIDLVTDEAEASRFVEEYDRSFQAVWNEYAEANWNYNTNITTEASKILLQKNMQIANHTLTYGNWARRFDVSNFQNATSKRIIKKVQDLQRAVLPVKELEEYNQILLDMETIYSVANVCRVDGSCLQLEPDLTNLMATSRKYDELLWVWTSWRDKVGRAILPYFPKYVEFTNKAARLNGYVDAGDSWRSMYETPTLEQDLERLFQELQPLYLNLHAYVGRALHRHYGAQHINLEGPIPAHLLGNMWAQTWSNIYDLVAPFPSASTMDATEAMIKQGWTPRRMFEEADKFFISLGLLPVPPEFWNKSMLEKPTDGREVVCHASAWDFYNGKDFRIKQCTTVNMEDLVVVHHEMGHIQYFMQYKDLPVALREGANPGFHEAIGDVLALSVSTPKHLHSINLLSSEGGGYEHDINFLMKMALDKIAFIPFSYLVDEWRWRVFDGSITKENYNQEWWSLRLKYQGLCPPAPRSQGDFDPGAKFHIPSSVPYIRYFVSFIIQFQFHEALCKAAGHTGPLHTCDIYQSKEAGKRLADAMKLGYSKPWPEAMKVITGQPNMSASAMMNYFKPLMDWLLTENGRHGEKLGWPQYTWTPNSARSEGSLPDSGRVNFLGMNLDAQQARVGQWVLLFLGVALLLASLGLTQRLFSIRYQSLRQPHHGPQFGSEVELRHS
# Method: The ACE-inhibitory activity was evaluated using HHL as a substrate by monitoring the released hippuric acid using a spectrophotometric method. Briefly, the reaction system comprised 50 µL of ACE (25 mU), 150 µL of 8.3 mM HHL, and 50 µL of sample solutions. After incubation in a shaking water bath (37 °C) for 1 h, 1 M HCl (250 µL) was added to stop the reaction. The hippuric acid formed was subsequently extracted by 1.4 mL ethyl acetate. After centrifugation, 1 mL of the supernatant was collected and evaporated at 80 °C for 60 min in a vacuum. The residue was then dissolved in 2 mL of distilled water and the absorbance at 228 nm was read. The inhibitory activity was calculated as follows:(1) ACE inhibition % = 1− AS/AC ×100, where AC is the absorbance of the ACE solution without an inhibitor and AS is the absorbance of the mixture-contained samples. The IC50 value, the inhibitor concentration required to inhibit half the ACE activity, was acquired by nonlinear regression from a plot of percentage ACE inhibition versus different inhibitor concentrations.
# [1] = test system: spontaneously hypertensive rats (SHRs); test: Body weight of SHRs during administration; format: in vivo, rat; conditions: oral 50, 100, 150 mg/kg once daily, five weeks; p > 0.05
# Method: Following the method indicated by Zou et al. [26] with some modifications, 20 male SHRs (10 weeks, 230 ± 20 g body weight (bw)) were purchased from Vital River Laboratory Animal Technology Co., Ltd (Beijing, China). After conditioning for one week, the rats were divided into five groups of four rats each. […] High dosage group (150 mg/kg body weight once daily), middle dosage group (100 mg/kg body weight once daily), and low dosage group (50 mg/kg body weight once daily) were orally given the peptide dissolved in 0.9% saline solution via gastric intubation. All of the treatments were conducted for five consecutive weeks. Each week, the systolic blood pressure (SBP) and diastolic blood pressure (DBP) of the rats were measured with a non-invasive blood-pressure apparatus (BP-300A Non-Invasive Blood Pressure Monitoring System, Chengdu, China). The body weight and heart rate of the rats were determined at the same time. At least five readings were recorded and averaged out.
# [2] = read-out: ABTS·+ scavenging ability IC50; cited from earlier work
# From the text: ABTS·^+ scavenging activity represents the total antioxidant activity of potential antioxidants. […] Moreover, the presence of hydrophobic amino ...
# [3] = cited from earlier work
# From the text: The presence of some metal ions like Fe^2+ and Cu^2+ can extremely accelerate the oxidative chain reaction of oil and induce the production of more various radicals. […] It was pointed out that amino acid residues such as Pro, Phe, and Arg in the side chain could act a ...
# ACE = test system: ACE; parameters: method as in 2 sources, one per row (each row's own in cited_ref): ref 6 = [6]; PMID 28317757; doi:10.1016/j.foodchem.2017.02.039; 6. Lee S.Y. Hur S.J. Antihypertensive peptides from animal products, marine organisms, and plants Food Chem. 2017 228 506 517 10.1016/j.foodchem.2017.02.039 28317757 ||| ref 25, 30, 31 = [25]; PMID 30229250; doi:10.1039/C8FO00569A; 25. Ling Y. Sun L.P. Zhuang Y.L. Preparation and identification of novel inhibitory angiotensin-I-converting enzyme peptides from tilapia skin gelatin hydrolysates: inhibition kinetics and molecular d || [30]; doi:10.1016/j.lwt.2018.12.059; 30. Bhaskara B. Ananthanarayana L. Jamdar S. Purification, identification, and characterization of novel angiotensin I converting enzyme (ACE) inhibitory peptides from alcalase digested horse gram flo || [31]; doi:10.1016/j.lwt.2016.08.047; 31. Wang X. Chen H. Fu X. Li S. Wei J. A novel antioxidant and ACE inhibitory peptide from rice bran protein: Biochemical characterization and molecular docking study LWT-Food Sci. Technol. 2017 75 93; conditions: peptides from tilapia skin gelatin, horse gram protein, rice bran protein; read-out: IC50 of ACE-inhibitory activity; cited from earlier work
# From the text: With the help of databases AHTPDB and BIOPEP, and based on the similarity to the already reported ACE-inhibitory and antioxidant peptides, three peptides, namely […]
compound,measurement,setting,value
CC[C@H](C)[C@H](NC(=O)[C@@H](NC(=O)[C@H](CCC(N)=O)NC(=O)CNC(=O)[C@@H](N)CCCNC(=N)N)C(C)C)C(=O)N[C@@H](Cc1ccc(O)cc1)C(=O)N[C@H](C(=O)N[C@@H](CC(C)C)C(=O)O)C(C)C (H-RGQVIYVL-OH),IC50,ACE (from rabbit lung),38.2 µM
same,Side effect on SHRs (heart rate and body weight vs negative control),[1],no obvious side effect
HPLDSLCL [literature antioxidant peptide],IC50,[2],74.4 µM
Leu-Ala-Arg-Leu [literature peptide from tilapia gelatin],Fe2+ chelating ability,"[3]; at 1 mg/mL, peptide from tilapia gelatin",46.53%
QLLLQQ,IC50,ACE,75 µM
VGLPNSR,IC50,ACE,80.9 µM
VTSLDLPVLRW [literature antioxidant peptide],IC50,[2],661 µM
YYIVS [literature peptide from sweet potato protein],Fe2+ chelating ability,"[3]; at 3 mg/mL, peptide from sweet potato protein",59.74%

# — article PMC6943578, “Isolation of Novel ACE-Inhibitory and Antioxidant Peptides from Quinoa Bran Albumin Assisted with an In Silico Approach: Characterization, In Vivo Antihypertension, and Molecular Docking” (Molecules, 2019)
